Patent US10774064B2 (Cadent Therapeutics, Inc., priority 2016, dated 2020)

target: T1, small-conductance Ca2+-activated K+ channels (SK channels, subtype 2) (Homo sapiens, UniProt Q9H2S1); assay: whole-cell patch-clamp of ionic current through SK2 channels in HEK293 cells (SC100); format: cell-based; conditions: concentration that increases the basal current by 100%; HEK293 cells expressing SK2 channels
T1 construct: expressed in transfected cells; host or cells: HEK293
Method in brief: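 Whole-cell patch-clamp recording of current in HEK293 cells expressing SK2 channels. SC100 is the compound concentration that increases basal current by 100%.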

Row | Structure (SMILES) | SC100
1 | O=C(NCc1cc(NC2CCC(F)(F)CC2)nc(-n2ccc(CF)n2)n1)C1COC1 [Compound 333, N-((6-((4,4-difluorocyclohexyl)amino)-2-(3-(fluoromethyl)-1H-pyrazol-1-yl)pyrimidin-4-yl)methyl)oxetane-3-carboxamide] | + (+ means >1 uM)
2 | Cc1cc(C)n(-c2nc(NC3CCC(F)(F)CC3)cc(NC(C(N)=O)C(C)C)n2)n1 (stereo in doubt) [Compound 164, (R)-2-((6-((4,4-difluorocyclohexyl)amino)-2-(3,5-dimethyl-1H-pyrazol-1-yl)pyrimidin-4-yl)amino)-3-methylbutanamide] | + (+ means >1 uM)
3 | COc1ccc(CNc2cc(NC3CCC(F)(F)CC3)nc(-n3nc(C)cc3C)c2)cc1 [Compound 264, N2-(4,4-difluorocyclohexyl)-6-(3,5-dimethyl-1H-pyrazol-1-yl)-N4-(4-methoxybenzyl)pyridine-2,4-diamine] | ++ (++ means 200 nM-1000 nM)
4 | Cc1cc(C)n(-c2cc(N3CCNC(C(N)=O)C3)nc(NC3CCC(F)(F)CC3)n2)n1 (stereo not drawn) [Compound 106, 4-(2-((4,4-difluorocyclohexyl)amino)-6-(3,5-dimethyl-1H-pyrazol-1-yl)pyrimidin-4-yl)piperazine-2-carboxamide] | ++ (++ means 200 nM-1000 nM)
5 | COC(=O)N1CC(Oc2cc(NC3CCC(F)(F)CC3)nc(-c3nc(C(F)(F)F)cs3)n2)C1 [Compound 324, methyl 3-((6-((4,4-difluorocyclohexyl)amino)-2-(4-(trifluoromethyl)thiazol-2-yl)pyrimidin-4-yl)oxy)azetidine-1-carboxylate] | ++ (++ means 200 nM-1000 nM)
6 | FCc1ccn(-c2nc(NC3CCC(F)(F)CC3)cc(OC3CC(F)C3)n2)n1 (stereo not drawn) [Compound 346, N-(4,4-difluorocyclohexyl)-6-(3-fluorocyclobutoxy)-2-(3-(fluoromethyl)-1H-pyrazol-1-yl)pyrimidin-4-amine] | + (+ means >1 uM)
7 | Cc1cc(C)n(-c2nc(NC3CCC(F)(F)CC3)cc(N3CCOCC3)n2)n1 [Compound 187, N-(4,4-difluorocyclohexyl)-2-(3,5-dimethyl-1H-pyrazol-1-yl)-6-morpholinopyrimidin-4-amine] | ++ (++ means 200 nM-1000 nM)

Second part, the compound after the results:

Row | SC100 | Structure (SMILES)
8 | ++ (++ means 200 nM-1000 nM) | Cc1cn(-c2cc(OC3COC3)cc(NC3CCC(F)(F)CC3)n2)nc1CF [Compound 345, N-(4,4-difluorocyclohexyl)-6-(3-(fluoromethyl)-4-methyl-1H-pyrazol-1-yl)-4-(oxetan-3-yloxy)pyridin-2-amine]
9 | + (+ means >1 uM) | Cc1cc(C)n(-c2nc(NC3CCC(F)(F)CC3)cc(N3CC4(COC4)C3)n2)n1 [Compound 105, N-(4,4-difluorocyclohexyl)-2-(3,5-dimethyl-1H pyrazol-1-yl)-6-(2-oxa-6-azaspiro[3.3]heptan-6-yl)pyrimidin-4-amine]

same assay, conditions: whole-cell patch-clamp, HEK293 cells expressing SK2 channels; concentration that increases the basal current by 100%

Row | Structure (SMILES) | SC100 (μM)
10 | Cc1cc(C)n(-c2cc(NC3CCC(F)(F)CC3)cc(N3CCOCC3)c2)n1 [IN10963-024-P1, N-(4,4-difluorocyclohexyl)-3-(3,5-dimethyl-1H-pyrazol-1-yl)-5-morpholinoaniline] | + (+ means >1 uM)
11 | Cc1csc(-c2cc(N3CCN4C(=O)OC[C@@H]4C3)cc(NC3CCC(F)(F)CC3)n2)n1 [NSSy5837] | +++ (+++ means <200 nM)
12 | COCc1cc(NC2CCC(F)(F)CC2)nc(-n2ccc(C3CC3)n2)n1 [NSSy6880] | ++ (++ means 200 nM-1000 nM)
13 | Cc1cc(C)n(-c2nc(NC3CCCCC3)cc(C(C)O)n2)n1 (stereo not drawn) [IN10973-008-P1] | + (+ means >1 uM)
14 | Cc1cc(C)n(-c2nc(NC3CCC(F)(F)CC3)cc(C(C)N3CCOCC3)n2)n1 (stereo not drawn) [IN10987-055-P1, N-(4,4-difluorocyclohexyl)-2-(3,5-dimethyl-1H-pyrazol-1-yl)-6-(1-morpholinoethyl)pyrimidin-4-amine] | + (+ means >1 uM)
15 | COC(C)c1cc(N(C)C2CCC(F)(F)CC2)nc(-n2ccc(C(F)(F)F)n2)n1 (stereo not drawn) [IN11053-073-P1, N-(4,4-difluorocyclohexyl)-6-(1-methoxyethyl)-N-methyl-2-(3-(trifluoromethyl)-1H-pyrazol-1-yl)pyrimidin-4-amine] | + (+ means >1 uM)
16 | COC(=O)N(C)C1CC(Oc2cc(NC3CCC(F)(F)CC3)nc(-c3nc(C)cs3)n2)C1 (stereo not drawn) [NSSy5730] | ++ (++ means 200 nM-1000 nM)
17 | Cc1csc(-c2nc(NC3CC(F)(F)C3)cc(OC3CCOCC3)n2)n1 [IN11133-020-P1, N-(3,3-difluorocyclobutyl)-2-(4-methylthiazol-2-yl)-6-((tetrahydro-2H-pyran-4-yl)oxy) pyrimidin-4-amine] | + (+ means >1 uM)
18 | Cc1cc(NC2CCC(F)(F)CC2)nc(-c2nc(C3CC3)cs2)n1 [IN11147-062-P1, 2-(4-cyclopropylthiazol-2-yl)-N-(4,4-difluorocyclohexyl)-6-methylpyrimidin-4-amine] | + (+ means >1 uM)
19 | Cc1cc(C)n(-c2nc(NC3CCC(F)(F)CC3)cc(N3CCOC(COC(F)F)C3)n2)n1 (stereo not drawn) [IN10984-022-P1] | ++ (++ means 200 nM-1000 nM)
20 | Cc1ccn(-c2nc(NC3CCC(F)(F)CC3)cc(OC3CNC3)n2)n1 [NSSy5648, 6-(azetidin-3-yloxy)-N-(4,4-difluorocyclohexyl)-2-(3-methyl-1H-pyrazol-1-yl)pyrimidin-4-amine] | + (+ means >1 uM)
21 | Cc1csc(-c2nc(NC3CCCCC3=O)cc(N3CCOCC3)n2)n1 (stereo not drawn) [IN11140-065-P1, 2-((2-(4-methylthiazol-2-yl)-6-morpholinopyrimidin-4-yl)amino)cyclohexan-1-one] | + (+ means >1 uM)
22 | COC1CCC(Nc2cc(N3CCOCC3)nc(-n3ccc(C)n3)n2)CC1 (stereo not drawn) [NSSy6529, N-(4-methoxycyclohexyl)-2-(3-methyl-1H-pyrazol-1-yl)-6-morpholinopyrimidin-4-amine] | + (+ means >1 uM)
23 | CC(=O)c1cc(NC2CCC(F)(F)CC2)nc(-c2nc(C)cs2)n1 [IN11030-054-P1, 1-(6-((4,4-difluorocyclohexyl)amino)-2-(4-methylthiazol-2-yl)pyrimidin-4-yl) ethan-1-one] | + (+ means >1 uM)

The remaining lines, values ahead:

Row | SC100 (μM) | Structure (SMILES)
24 | + (+ means >1 uM) | Cc1cc(C)n(-c2cc(N3C[C@@H]4C[C@H]3CO4)nc(NC3CCC(F)(F)CC3)n2)n1 [NSSy6639]
25 | + (+ means >1 uM) | Cc1csc(-c2nc(NC3CCC(F)(F)CC3)cc(N(C)C3CC3)n2)n1 [IN10881-090-P1]
26 | ++ (++ means 200 nM-1000 nM) | COCc1cc(NC2CCC(F)(F)CC2)nc(-c2nc(C)cs2)n1 [NSSy5779, N-(4,4-difluorocyclohexyl)-6-(methoxymethyl)-2-(4-methylthiazol-2-yl)pyrimidin-4-amine]
27 | ++ (++ means 200 nM-1000 nM) | COc1cc(NC2CCC(F)(F)CC2)nc(-n2ccc(C3CC3)n2)n1 [NSSy6850]
28 | ++ (++ means 200 nM-1000 nM) | Cc1csc(-c2nc(NC3CCC(F)(F)CC3)cc(N3CC4CC3CN4C)n2)n1 (stereo not drawn) [IN10987-056-P1]
29 | ++ (++ means 200 nM-1000 nM) | Cc1ccn(-c2nc(NC3CCC(F)(F)CC3)cc(N3CC(=O)N(C)C(=O)C3)n2)n1 [IN11288-005-P1]
30 | ++ (++ means 200 nM-1000 nM) | CC(=O)N1CCN(c2cc(-n3ccc(C)n3)nc(NC3CCC(F)(F)CC3)n2)CC1 [NSSy6629, 1-(4-(2-((4,4-difluorocyclohexyl)amino)-6-(3-methyl-1H-pyrazol-1-yl)pyrimidin-4-yl)piperazin-1-yl)ethan-1-one]
31 | + (+ means >1 uM) | Cc1cc(NC2CCC(F)(F)CC2)nc(-n2ccc(C3(O)CC3)n2)n1 [IN11251-011-P1, 1-(1-(4-((4,4-difluorocyclohexyl)amino)-6-methylpyrimidin-2-yl)-1H-pyrazol-3-yl)cyclopropan-1-ol]
32 | + (+ means >1 uM) | CCOC(C)c1cc(NC2CCC(F)(F)CC2)nc(-n2ccc(C)n2)n1 (stereo not drawn) [IN10876-061-P1, N-(4,4-difluorocyclohexyl)-6-(1-ethoxyethyl)-2-(3-methyl-1H-pyrazol-1-yl)pyrimidin-4-amine]
33 | ++ (++ means 200 nM-1000 nM) | COC(=O)N1CC(Oc2cc(NC3CC=CCC3)nc(-n3ccc(C)n3)n2)C1 (stereo not drawn) [NSSy5786]
34 | +++ (+++ means <200 nM) | Cc1cc(NC2CCC(F)(F)CC2)nc(-n2ccc(C3CC3)n2)c1 [IN11106-062-P1, 6-(3-cyclopropyl-1H-pyrazol-1-yl)-N-(4,4-difluorocyclohexyl)-4-methylpyridin-2-amine]
35 | + (+ means >1 uM) | Cc1cc(NC2CCC(F)(F)CC2)nc(-n2ccc(OCc3ccccc3)n2)n1 [IN11079-066-P1, 2-(3-(benzyloxy)-1H-pyrazol-1-yl)-N-(4,4-difluorocyclohexyl)-6-methyl pyrimidin-4-amine]
36 | + (+ means >1 uM) | CC(=O)N1CCN(c2cc(-n3ccc(F)n3)nc(NC3CCC(F)(F)CC3)n2)CC1 [NSSy6886]
37 | ++ (++ means 200 nM-1000 nM) | Cc1csc(-c2nc(NC3CCC(F)(F)CC3)cc(N3CCC(C4COC4)CC3)n2)n1 [NSSy5787]
38 | + (+ means >1 uM) | Cc1csc(-c2nc(NC3CCC(F)(F)CC3)cc(N3CCCC3)n2)n1 [IN10882-014-P1]
39 | ++ (++ means 200 nM-1000 nM) | NC(=O)OCc1cc(NC2CCC(F)(F)CC2)nc(-n2ccc(C3CC3)n2)n1 [IN11239-001-P1, (2-(3-cyclopropyl-1H-pyrazol-1-yl)-6-((4,4-difluorocyclohexyl)amino)pyrimidin-4-yl)methyl carbamate]
40 | + (+ means >1 uM) | CC1=NN(c2nc(NC3CCC(F)(F)CC3)cc(N3CCOCC3)n2)CC1 [IN11196-041-P1, N-(4,4-difluorocyclohexyl)-2-(3-methyl-4,5-dihydro-1H-pyrazol-1-yl)-6-morpholinopyrimidin-4-amine]
41 | + (+ means >1 uM) | CCOc1ccn(-c2nc(C)cc(NC3CCC(F)(F)CC3)n2)n1 [IN11079-040-P1, N-(4,4-difluorocyclohexyl)-2-(3-ethoxy-1H-pyrazol-1-yl)-6-methylpyrimidin-4-amine]
42 | ++ (++ means 200 nM-1000 nM) | Cc1ccn(-c2cc(OCc3cnnn3C)cc(NC3CCC(F)(F)CC3)n2)n1 [NSSy5643]
